In brackets after ≈: the same amount, converted by molar mass.
Legend:
[1] = Growth rate and feed efficiency of animals when included in the feed rations (statement); assay type: in vivo; settings: in words
Description: It is an embodiment of this invention to provide a method for promoting the growth of animals and improving their feed efficiency by administering to them a compound of this invention.
The method of administration of a compound of this invention is to incorporate it in the feed rations intended for the animal at a concentration of about 50-150 g/ton of feed, preferably about 100 g/ton. The animals are permitted to feed at liberty throughout the growth period. There are many specialized feed rations for different species of animals. The compounds of this invention can be used with any of the known rations.

[2] = Growth promotion and improved feed efficiency feeding test (rye diet); assay type: in vivo, male two-day-old broiler-type chicks; settings: for Increase in feed efficiency / Increase in weight: over control group
Experimental: Growth promotion and improved feed efficiency were determined as follows:
Two groups of male two-day-old broiler-type chicks were placed into Petersime starter batteries and given feed and water ad libitum for the duration of each test. Each group was subdivided into six sub-groups with ten birds in each sub-group, thus providing sixty birds per group. One group received the basal feed ration, as given in Table 1 and served as a control. The other group receives the same ration, but in addition there was included P-2229 at a concentration of 100 g/ton. The basal ration was a rye diet which alters the microflora of the gut in the bird which results in a growth depressant effect. When a growth stimulant or promotant is added to the diet, the effect on the birds performance will be more apparent than if a corn base diet was used.
The test period was thirteen days. Individual live body weights and pen feed efficiencies were taken at 2 and 14 days of age.

Staphylococcus aureus = assay: Minimum inhibitory concentration, Staphylococcus aureus; assay type: cell-based
[3] = test system: Streptococcus hemolyticus; assay: Minimum inhibitory concentration, Streptococcus hemolyticus; assay type: cell-based; settings: Streptococcus pyogenes
Escherichia coli = assay: Minimum inhibitory concentration, Escherichia coli; assay type: cell-based
[4] = test system: Pasteurella pseudotuberculosis; assay: microbe, parasite or virus in culture; assay type: cell-based; settings: Yersinia pseudotuberculosis
Pseudomonas aeruginosa = assay: Minimum inhibitory concentration, Pseudomonas aeruginosa; assay type: cell-based
Shigella dysenteriae = assay: Minimum inhibitory concentration, Shigella dysenteriae; assay type: cell-based
Mycobacterium ranae = assay: Minimum inhibitory concentration, Mycobacterium ranae; assay type: cell-based
Aspergillus niger = assay: Minimum inhibitory concentration, Aspergillus niger; assay type: cell-based
Candida albicans = assay: Minimum inhibitory concentration, Candida albicans; assay type: cell-based
Pencillium sp. = assay: Minimum inhibitory concentration, Pencillium sp.; assay type: cell-based
Aspergillus fumigatus = assay: Minimum inhibitory concentration, Aspergillus fumigatus; assay type: cell-based
[5] = Table 1, 100 g/ton in feed, 13 days
[6] = Table 2, feed consumed to weight gained, control 1.56
[7] = Table 2, test of Example 1 repeated, control 208.77
[8] = Table 3, feed consumed to weight gained, control 1.82
[9] = when tested in feed rations, in words

Compound: CCC(COC(C)=O)(C(OC(C)=O)c1c[n+]([O-])c2ccccc2[n+]1[O-])[N+](=O)[O-] (stereo not drawn) [Example 12, 2-(1-acetoxy-2-acetoxymethyl-2-nitrobutyl)quinoxaline-1,4-dioxide]
- feed efficiency ([1]; present-tense example): increases the feed efficiency
- growth rate ([1]; present-tense example): improves the growth rate

Compound: CCCC(C(O)c1c[n+]([O-])c2ccccc2[n+]1[O-])[N+](=O)[O-] (stereo not drawn) [Example 13, 2-(1-hydroxy-2-nitropentyl)quinoxaline-1,4-dioxide]
- feed efficiency ([1]; present-tense example): increases the feed efficiency
- growth rate ([1]; present-tense example): improves the growth rate

Compound: CCC(C)(C(O)c1c[n+]([O-])c2ccccc2[n+]1[O-])[N+](=O)[O-] (stereo not drawn) [Example 14, 2-(1-hydroxy-2-methyl-2-nitrobutyl)quinoxaline-1,4-dioxide]
- feed efficiency ([1]; present-tense example): increases the feed efficiency
- growth rate ([1]; present-tense example): improves the growth rate

Compound: O=[N+]([O-])C1(C(O)c2c[n+]([O-])c3ccccc3[n+]2[O-])CCCCC1 (stereo not drawn) [Example 15, α-(1-nitrocyclohexyl)-2-quinoxalinemethanol-1,4-dioxide]
- feed efficiency ([1]; present-tense example): increases the feed efficiency
- growth rate ([1]; present-tense example): improves the growth rate

Compound: CCCC(C(OC(C)=O)c1c[n+]([O-])c2ccccc2[n+]1[O-])[N+](=O)[O-] (stereo not drawn) [Example 16, 2-(1-acetoxy-2-nitropentyl)quinoxaline-1,4-dioxide]
- feed efficiency ([1]; present-tense example): increases the feed efficiency
- growth rate ([1]; present-tense example): improves the growth rate

Compound: CCC(C)(C(OC(C)=O)c1c[n+]([O-])c2ccccc2[n+]1[O-])[N+](=O)[O-] (stereo not drawn) [Example 17, 2-(1-acetoxy-2-methyl-2-nitrobutyl)quinoxaline-1,4-dioxide]
- feed efficiency ([1]; present-tense example): increases the feed efficiency
- growth rate ([1]; present-tense example): improves the growth rate

Compound: CC(=O)OC(c1c[n+]([O-])c2ccccc2[n+]1[O-])C1([N+](=O)[O-])CCCCC1 (stereo not drawn) [Example 18]
- feed efficiency ([1]; present-tense example): increases the feed efficiency
- growth rate ([1]; present-tense example): improves the growth rate

Compound: COC(=O)C(C(O)c1c[n+]([O-])c2ccccc2[n+]1[O-])[N+](=O)[O-] (stereo not drawn) [Example P-2229, methyl-α-nitro-β-hydroxy-2-quinoxalinepropionate-1,4-dioxide]
- Body weight gain, av ([2]; Table 1, 100 g/ton in feed, 13 days, control 208.73): 218.75 g
- feed efficiency ([2]; Table 1, feed consumed to weight gained, control 1.49): 1.48
- Increase in feed efficiency [2, 5]: 0.7%
- Increase in weight [2, 5]: 4.8%

Compound: CC(C(O)c1c[n+]([O-])c2ccccc2[n+]1[O-])[N+](=O)[O-] (stereo not drawn) [Example P-2230, 2-(1-hydroxy-2-nitropropyl)quinoxaline-1,4-dioxide]
- feed efficiency [2, 6]: 1.45
- Increase in feed efficiency ([2]; Table 2): 7.1
- Increase in weight ([2]; Table 2): 6.5%
- Body weight gain, av [2, 7]: 222.37 g

Compound: O=[N+]([O-])CC(O)c1c[n+]([O-])c2ccccc2[n+]1[O-] (stereo not drawn) [Example P-2231, 2-(1-hydroxy-2-nitroethyl)-quinoxaline-1,4-dioxide]
- feed efficiency [2, 6]: 1.46
- Increase in feed efficiency ([2]; Table 2): 6.4
- Increase in weight ([2]; Table 2): 6.1%
- Body weight gain, av [2, 7]: 221.54 g

Compound: COC(=O)C(C(OC(C)=O)c1c[n+]([O-])c2ccccc2[n+]1[O-])[N+](=O)[O-] (stereo not drawn) [Example P-2236]
- Body weight gain, av ([2]; Table 4, control 97.33): 154.92 g
- feed efficiency ([2]; Table 4, feed consumed to weight gained, control 1.84): 1.56
- Increase in feed efficiency ([2]; Table 4): 15.2
- Increase in weight ([2]; Table 4): 59.17%

Compound: CC(=O)OC(c1c[n+]([O-])c2ccccc2[n+]1[O-])C(C)[N+](=O)[O-] (stereo not drawn) [Example P-2242, 2-(1-acetoxy-2-nitropropyl)quinoxaline-1,4-dioxide]
- Body weight gain, av ([2]; Table 5, control 165.7): 210.6 g
- feed efficiency ([2]; Table 5, feed consumed to weight gained, control 1.57): 1.48
- Increase in feed efficiency ([2]; Table 5): 5.7
- Increase in weight ([2]; Table 5): 27.1%

Compound: CC(=O)OC(C[N+](=O)[O-])c1c[n+]([O-])c2ccccc2[n+]1[O-] (stereo not drawn) [Example P-2243, 2-(1-acetoxy-2-nitroethyl)quinoxaline-1,4-dioxide]
- Body weight gain, av ([2]; Table 6, control 144.7): 240.5 g
- feed efficiency ([2]; Table 6, feed consumed to weight gained, control 1.69): 1.48
- Increase in feed efficiency ([2]; Table 6): 12.4
- Increase in weight ([2]; Table 6): 66.2%

Compound: CCC(C(O)c1c[n+]([O-])c2ccccc2[n+]1[O-])[N+](=O)[O-] (stereo not drawn) [Example P-2246, 2-(1-hydroxy-2-nitrobutyl)quinoxaline-1,4-dioxide]
- Body weight gain, av ([2]; Table 3, control 128.6): 194.7 g
- feed efficiency [2, 8]: 1.54
- Increase in feed efficiency ([2]; Table 3): 15.4
- Increase in weight ([2]; Table 3): 51.4%

Compound: CC(C)(C(O)c1c[n+]([O-])c2ccccc2[n+]1[O-])[N+](=O)[O-] (stereo not drawn) [Example P-2265, 2-(1-hydroxy-2-methyl-2-nitropropyl)quinoxaline-1,4-dioxide]
- Body weight gain, av ([2]; Table 3, control 128.6): 188.7 g
- feed efficiency [2, 8]: 1.59
- Increase in feed efficiency ([2]; Table 3): 12.6
- Increase in weight ([2]; Table 3): 46.7%

Compound: CCC(C(OC(C)=O)c1c[n+]([O-])c2ccccc2[n+]1[O-])[N+](=O)[O-] (stereo not drawn) [Example P-2277, 2-(1-acetoxy-2-nitrobutyl)quinoxaline-1,4-dioxide]
- feed efficiency [1]: increases the feed efficiency
- growth rate [1]: improves the growth rate

Compound: CCC(CO)(C(O)c1c[n+]([O-])c2ccccc2[n+]1[O-])[N+](=O)[O-] (stereo not drawn) [Example P-2280, 2-(1-hydroxy-2-hydroxymethyl-2-nitrobutyl)quinoxaline-1,4-dioxide]
- feed efficiency [2, 9]: improved efficiency
- growth rate [2, 9]: improved growth rate
- MIC (Staphylococcus aureus): 500 to 1000 µg/mL (≈ 1620 to 3230 µM)
- MIC [3]: 500 to 1000 µg/mL (≈ 1620 to 3230 µM)
- MIC (Escherichia coli): 100 to 500 µg/mL (≈ 323 to 1620 µM)
- MIC [4]: 50 to 100 µg/mL (≈ 162 to 323 µM)
- MIC (Pseudomonas aeruginosa): 500 to 1000 µg/mL (≈ 1620 to 3230 µM)
- MIC (Shigella dysenteriae): 500 to 1000 µg/mL (≈ 1620 to 3230 µM)
- MIC (Mycobacterium ranae): 50 to 100 µg/mL (≈ 162 to 323 µM)
- MIC (Aspergillus niger): 100 to 500 µg/mL (≈ 323 to 1620 µM)
- MIC (Candida albicans): 100 to 500 µg/mL (≈ 323 to 1620 µM)
- MIC (Pencillium sp.): 100 to 500 µg/mL (≈ 323 to 1620 µM)
- MIC (Aspergillus fumigatus): 500 to 1000 µg/mL (≈ 1620 to 3230 µM)

Compound: CC(=O)OC(c1c[n+]([O-])c2ccccc2[n+]1[O-])C(C)(C)[N+](=O)[O-] (stereo not drawn) [Example P-2284, 2-(1-acetoxy-2-methyl-2-nitropropyl)quinoxaline-1,4-dioxide]
- feed efficiency [1]: increases the feed efficiency
- growth rate [1]: improves the growth rate
